{
  "source": "patent US6642221B1",
  "about": "“Vanadium compounds as anti-proliferative agents” (Parker Hughes Institute, priority 2000, dated 2003)",
  "key": {"[1]": {"system": "Zebrafish embryos", "assay": "Zebrafish embryo model system: embryos exposed to compound in medium, cell division observed", "type": "in vivo, Zebrafish (Danio rerio)", "settings": "for inhibition of mitosis in treated embryos: 10 μM to 4 mM in medium; for effect on embryo development: 120 minutes; for effect on embryo cell division: thirty minutes after treatment", "method": "Two-cell stage Zebrafish embryos were dechorionated with 1% trypsin-EDTA and treated with 1% DMSO at a temperature of 28.5° C. Zebrafish embryos were removed from their chorions by mild digestion in 1% Trypsin-EDTA (Sigma, St. Louis, Mo.) for 10 minutes at 28.5° C. (Standard temperature - ST), washed three times in “egg water” and twice in “embryonic medium” (EM) as described in Westerfield, M., The Zebrafish Book, Supra. The dechorionated two-cell stage cleaving eggs/embryos were transferred to the 24-well plastic cell culture plates (Costar, Cambridge, Mass.) filled with EM. Dechorionated embryos (10-12 per well) were exposed to VDC and VDacac at a constant ST for 0.5-24 hours. The final volume of the medium in each well was 500 μL. Both compounds were used at concentrations ranging from 10 μM to 4 mM. The compounds were dissolved in DMSO and then diluted serially with the incubation medium. The final concentration of DMSO in the wells was 1.2%. The sham-treated control embryos were incubated in EM in the presence of 1.2% DMSO.\n(§1) Observations of cell division and development of the Zebrafish embryos were carried out using a SMZ-10A stereo microscope, once every 30 minutes within the first 3 hours of incubation and at 6, 12 and 24 hours, as well. […] The stereo microscope was fitted with a specially designed transparent heating tray in order to keep embryos at ST during observations. Pictures of the embryos were taken with a H-III Photomicrographic System (Nikon) using Ektachrome 64X film (Kodak, Rochester, N.Y.)."}, "[2]": {"system": "Zebrafish embryos", "assay": "Microinjection of Zebrafish embryos, cell division and development observed", "type": "in vivo, Zebrafish (Danio rerio)", "description": "VDC and VDacac were microinjected into Zebrafish embryos at room temperature, using a SMZ-10A stereo microscope (Nikon, Melville, N.Y.) and Transjector 5246 (Eppendorf, Westbury, N.Y.). Dechorionated Zebrafish embryos at the two-cell stage were transferred to a Petri dish filled with embryonic medium. The bottom of the Petri dish was covered with an agar layer, and the embryos were placed in grooves in agar, exactly as described in Westerfield, M., The Zebrafish Book, Supra. Microinjections were performed under visual control. At the 2-4 cell stage, approximately 2 nL of the compound dissolved in Hank's Balanced Salt Solution (HBSS) (Gibco, Rockville, Md.) with 10% DMSO was injected into the cytoplasm of one of the blastomeres through a constantly flowing micropipette with a splinted sharp tip of 2-3 μm diameter. Sham-treated control embryos were injected with 2 nL of HBSS containing 10% DMSO. After the treatment, the embryos were transferred to standard temperature, 28.5° C.\nas §1"}, "[3]": {"system": "BT-20 breast cancer cells", "assay": "MTT cytotoxicity assay", "type": "cell-based, human", "settings": "BT20, 48 hours; read-out: IC50 (inhibition of cellular proliferation, MTT)", "method": "(§2) BT-20 and MDA-MB-231 breast cancer cells (HTB-19, HTB-26 ATCC, Rockville, Md.) and U373 glioblastoma cells (HTB-17 ATCC Rockville, Md.) were grown in MEM media modified with 10% Fetal Bovine serum and 1% Penicillin/Streptomycin (Life Technologies, Rockville Md.). Cells were seeded onto sterile 22 mm square coverslips in 6-well plates. Cells on coverslips were kept in an incubator for 24 hours prior to treatment. The following day, VDC or VDacac was added from a stock solution made in DMSO to yield final concentration ranging from 3.9 to 500 μM (final DMSO concentration=0.025%). Cells were returned to a 37° C. incubator for 24 hours.\n(§3) The cytotoxicity of VDC and VDacac against the human tumor cell lines discussed above was assayed using the MTT (3-[4,5-dimethylthiazol-2-yl]-2,5-diphenyl tetrazolium bromide) assay (Boehringer Mannheim Corp., Indianapolis, Ind.). Briefly, exponentially growing tumor cells were seeded into a 96-well plate at a density of 2.5×10^4 cells/well and incubated for 36 hr at 37° C. prior to drug exposure. On the day of treatment, culture medium was carefully aspirated from the wells and replaced with fresh medium containing VDC or VDacac at concentrations ranging from 3.9 to 500 μM. Triplicate wells were used for each treatment. The cells were incubated with the vanadium compounds for 48 hours at 37° C. in a humidified 5% CO2 atmosphere. To each well, 10 μl of MTT (0.5 mg/ml final concentration) was added and the plates were incubated at 37° C. for 4 hours to allow MTT to form formazan crystals by reacting with metabolically active cells. The formazan crystals were solubilized overnight at 37° C. in a solution containing 10% SDS in 0.01 M HCl. The absorbence of each well was measured in a microplate reader (Labsystems, Helsinki, Finland) at 540 nm and a reference wavelength of 690 nm. To translate the OD540 values into the number of live cells in each well, the OD540 values were compared to those on standard OD540—versus—cell number curves generated for each cell line. The percent survival was calculated using the formula: % survival=Live cell number[test]/Live cell number [control]×100. The IC50 values were calculated by non-linear regression analysis using Graphpad Prism software version 2.0 (Graphpad Software, Inc., San Diego, Calif.)."}, "[4]": {"system": "MDA-MB-231 breast cancer cells", "assay": "MTT cytotoxicity assay", "type": "cell-based, human", "settings": "MDA-MB-231, 48 hours; read-out: IC50 (inhibition of cellular proliferation, MTT)", "method": "as §2, §3"}, "[5]": {"system": "U373 glioblastoma cells", "assay": "MTT cytotoxicity assay", "type": "cell-based, human", "settings": "U373, 48 hours; read-out: IC50 (inhibition of cellular proliferation, MTT)", "method": "as §2, §3"}, "[6]": {"system": "BT-20 breast cancer cells", "assay": "Immunocytochemistry and confocal microscopic analysis of mitotic spindles", "type": "cell-based, human", "settings": "BT-20 cells; for mitotic spindle morphology (α-tubulin, DNA): confocal microscopy", "method": "as §2\nAt the appropriate time point, coverslips containing BT-20 cells were fixed in −20° C. methanol for 15 minutes followed by 15 minutes incubation in phosphate buffered saline +0.1% Triton X-100 (PBS+Tx). Coverslips were next incubated with a primary antibody recognizing α-tubulin (Sigma, St.Louis Mo.) γ-tubulin (BAbCo, Berkeley Calif.), or NuMA (Calbiochem, SanDiego Calif.) for 40 minutes in a humidified chamber at 37° C. Coverslips were washed for 15 minutes in PBS-Tx followed by a 40 min incubation with a fluorescently labeled secondary antibody (Jackson Immunoresearch, West Grove Pa.). For double labeling the respective primary and secondary antibodies were combined. The coverslips were again rinsed in PBS-Tx and incubated with 5 μM Toto−3 (Molecular Probes, Eugene Oreg.) for 20 minutes to label the DNA. Coverslips were immediately inverted onto slides in Vectashield (Vector Labs, Burlingame, N.H.) to prevent photobleaching, sealed with nail polish and stored at 4° C. Bovine oocytes were processed for immunocytochemistry as described previously. Navara et al., Dev. Biol., 162: 29-40, 1994.\nSlides were examined using a Bio-Rad MRC-1024 Laser Scanning Confocal Microscope mounted on a Nikon Eclipse E800 upright microscope with high numerical aperture objectives. Digital data was processed using Lasersharp (Bio-Rad, Hercules Calif.) and Photoshop (Adobe Systems Mountain View Calif.) software and printed on a Pictrography printer (Fuji Photo Elmsford, N.Y.)."}, "[7]": {"system": "pharyngonasal cancer", "settings": "single assay, Sakurai et al. 1995; cited from earlier work"}, "[8]": {"system": "germinal vesicle stage bovine oocytes", "settings": "24 hours; for oocytes matured to metaphase of meiosis II (MII): control 93%", "method": "Immature oocytes were recovered from bovine ovaries after slaughter by aspiration of 5 mm follicles. Only oocytes having a homogenous cytoplasm and surrounded by at least three layers of cumulus cells were selected. These were washed through three rinses of Hepes buffered Tyrode's media (114 mM NaCl, 3.2 mM KCl, 2 mM CaCl22H2O, […] MgCl26H2O, 25 mM NaHCO3, 0.4 mM NaH2PO4, 10 mM Na lactate, 100 I.U./ml Penicillin)(TL-Stock) modified with 10 mM Hepes, 1 mg/ml BSA, 0.2 mM pyruvate, and 25 μg/ml gentamicin (TL-Hepes; (16). Oocytes were matured for 24 hours in 50 μl drops of TC199 modified with 10% fetal bovine serum, 5 μg/ml FSH-p, 25μg/ml gentamicin, 1 μg/ml estrogen at 39° C. in 5% CO2 under mineral oil (17). After the oocytes were placed in the drops, 25 or 50 μM VDC was added in DMSO. Equal amounts of DMSO were added to control drops. Bovine oocytes were processed for immunocytochemistry after 24 hours.\nGerminal vesicle stage bovine oocytes were matured in vitro in the presence of vehicle or VDC (25 μM or 50 μM). After 24 hours, these oocytes were fixed, labeled with anti-tubulin antibodies and the DNA dye TOTO−3. Oocytes were scored according to their stage in meoisis, microtubule organization and chromosome number."}, "[9]": {"system": "dynein ATPase activity found in sperm axonemes", "settings": "100 μM", "quoted_text": "The effect of VDC on ATPase and GTPase activity was determined by isolating sperm axonemes after treatment of human sperm with 100 μM VDC. Sperm were pelleted by centrifugation 1900×g for 15 min, washed twice in cold PBS, resuspended in extraction buffer (1.0% Triton X-100, 0.1 M NaCl, 4 mM MgSO4, 1 mM CaCL2, 0.1 mM EDTA, 0.1 mM ATP, 7 mM 2-mercaptoethanol, and 5 mM imidazole buffer pH 7.0) and disrupted using a Dounce homogenizer. This homogenized suspension was centrifuged at 1500×g for 5 min to remove sperm heads and the resulting supernatant was recentrifuged at 12,000×g to recover the broken axonemes.\nThe axoneme pellet was resuspended in extraction buffer to remove residual membrane material, centrifuged at 1500×g for 5 min to remove residual sperm heads followed by centrifugation at 12,000×g to recover axonemes. The recovered axonemes were washed three times in extraction buffer lacking Triton X-100 and resuspended in solubilization buffer (0.6 M NaCl, 4 mM MgSO4, 1 mM CaCl2, 0.1 mM EDTA, 1 mM DTT, 7 mM 2-mercaptoetanol, 5 mM imidazole buffer pH 7.0) to solubilize the readily extractable motor protein dynein. The suspension was then centrifuged at 12,000×g. […] ATPase activity was measured using the EnzChek Phophate assay kit (Molecular Probes, Eugene Oreg.) according to manufacturers instructions."}, "[10]": {"system": "tumor cell", "settings": "Kopf-Maier et al. 1983; cited from earlier work"}},
  "note": "pIC50: −log10 of the molar value. Like-named read-outs stand apart in the source and are kept apart here.",
  "data": [
    {"molecule": "CC(=O)C=C(C)[O-].O=S(=O)([O-])C(F)(F)F.[V+4].c1cc[cH-]c1.c1cc[cH-]c1", "note": "[VDacac, Vanadocene acetylacetonato monotriflate]", "values": [
      {"measurement": "inhibition of mitosis in treated embryos", "setting": "[1]", "result": "inhibited mitosis in a concentration-dependent fashion"},
      {"measurement": "effect on embryo development", "setting": "[1]; 0.4 mM", "result": "developed similar defects"},
      {"measurement": "effect on embryo cell division", "setting": "[1]; 0.6 mM", "result": "cell division defects followed by fusion of the embryonic cells"},
      {"measurement": "effect on embryonic development after microinjection", "setting": "[2]; 1 pmoL microinjected (lower)", "result": "formation of a blastocoel-like cavity in the blastoderm and prevented gastrulation"},
      {"measurement": "effect on embryonic development after microinjection", "setting": "[2]; 49 pmoL microinjected (higher)", "result": "deterioration of cell localization and development failure"},
      {"measurement": "pIC50", "setting": "[3]", "result": 4.57},
      {"measurement": "pIC50", "setting": "[4]", "result": 5.04},
      {"measurement": "pIC50", "setting": "[5]", "result": 4.45},
      {"measurement": "mitotic spindle morphology (α-tubulin, DNA)", "setting": "[6]", "result": "aberrant monopolar mitotic structures"}
    ]},
    {"molecule": "O.O.O=S(=O)([O-])[O-].[O]=[V+2].c1cnc2c(c1)ccc1cccnc12", "note": "[[VO(Phen)(H2O)2](SO4), (diaqua)(1,10-phenanthroline)oxovanadium (IV) sulfate]", "values": [
      {"measurement": "activity against pharyngonasal cancer", "setting": "[7]", "result": "active agent against pharyngonasal cancer"}
    ]},
    {"molecule": "Vanadocene dichloride [VDC]", "values": [
      {"measurement": "inhibition of mitosis in treated embryos", "setting": "[1]", "result": "inhibited mitosis in a concentration-dependent fashion"},
      {"measurement": "effect on embryo development", "setting": "[1]; 0.76 mM", "result": "developed abnormal blastulae"},
      {"measurement": "effect on embryo cell division", "setting": "[1]; 1.9 mM", "result": "cell division defects followed by fusion of the embryonic cells"},
      {"measurement": "effect on embryonic development after microinjection", "setting": "[2]; 0.64 pmol microinjected (lowest)", "result": "formation of a blastocoel-like cavity in the blastoderm and prevented gastrulation"},
      {"measurement": "effect on embryonic development after microinjection", "setting": "[2]; 32 pmol microinjected (higher)", "result": "cell division slow-down and total disarray of cell localization and development arrest"},
      {"measurement": "effect on embryonic development after microinjection", "setting": "[2]; 58 pmol microinjected (highest)", "result": "total cell fusion within 30 minutes of microinjection"},
      {"measurement": "oocytes matured to metaphase of meiosis II (MII)", "setting": "[8]; 25 μM", "result": 16.2, "unit": "%"},
      {"measurement": "oocytes matured to metaphase of meiosis II (MII)", "setting": "[8]; 50 μM", "result": 10.0, "unit": "%"},
      {"measurement": "oocytes with abnormal meiotic spindles", "setting": "[8]; 25 or 50 μM, control 4%", "result": "≥ 50", "unit": "%"},
      {"measurement": "pIC50", "setting": "[3]", "result": 4.83},
      {"measurement": "pIC50", "setting": "[4]", "result": 4.96},
      {"measurement": "pIC50", "setting": "[5]", "result": 4.73},
      {"measurement": "NuMA localization", "setting": "[6]", "result": "only localized to one side of the mitotic spindle"},
      {"measurement": "γ-tubulin spindle pole labeling", "setting": "[6]", "result": "two foci of γ-tubulin on the same side of the chromosomes"},
      {"measurement": "mitotic spindle morphology (α-tubulin, DNA)", "setting": "[6]", "result": "aberrant monopolar mitotic structures"},
      {"measurement": "inhibition of ATPase activity found in axonemes", "setting": "[9]; four separate experiments", "result": 12.2, "unit": "%"},
      {"measurement": "ATPase activity found in axonemes", "setting": "[9]; control 0.08±0.01", "result": "0.07±0.02"},
      {"measurement": "tumor cell growth", "setting": "[10]", "result": "arrest tumor cell growth"}
    ]}
  ]
}
